Here are results for two compounds from US4716222A, “Substrates for hydrolases” (Hoechst Aktiengesellschaft, priority 1984, dated 1987).

In one test the target is T1, β-glucuronidase (Homo sapiens, UniProt P08236).
T1 construct: from tissue; host or cells: human urine concentrate
T1 sequence (P08236 23-651): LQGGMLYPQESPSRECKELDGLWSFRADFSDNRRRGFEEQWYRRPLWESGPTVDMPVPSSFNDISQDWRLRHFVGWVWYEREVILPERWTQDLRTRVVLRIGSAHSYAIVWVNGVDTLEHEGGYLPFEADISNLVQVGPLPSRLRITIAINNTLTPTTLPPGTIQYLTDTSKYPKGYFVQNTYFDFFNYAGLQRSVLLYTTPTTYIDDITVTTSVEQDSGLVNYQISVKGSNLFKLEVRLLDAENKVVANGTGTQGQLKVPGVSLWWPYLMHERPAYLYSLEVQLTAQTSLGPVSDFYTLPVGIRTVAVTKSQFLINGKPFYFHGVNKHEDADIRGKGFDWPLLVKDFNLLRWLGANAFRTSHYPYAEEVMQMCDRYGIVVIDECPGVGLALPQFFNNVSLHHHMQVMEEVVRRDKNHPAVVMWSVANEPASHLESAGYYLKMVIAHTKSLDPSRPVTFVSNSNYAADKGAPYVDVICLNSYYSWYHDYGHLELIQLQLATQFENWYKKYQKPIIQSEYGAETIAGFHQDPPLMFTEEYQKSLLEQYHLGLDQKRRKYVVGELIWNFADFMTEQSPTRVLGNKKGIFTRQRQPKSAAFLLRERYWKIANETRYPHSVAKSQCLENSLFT
Put plainly: Determination of β-glucuronidase in human urine. Type of test: biochemical. Conditions: human urine concentrate, pH 5, 30° C., 366 nm. As to the method:
The β-galactosidase activity could be kinetically measured in human urine by the use of 2H-7-O-(β-D-galactopyranosyl)-4-methyl-8-nitrobenzopyran-2-one (compound S15). An extinction change of 4 mE/min was recorded at 23° C. and 366 nm with the use of 200 μl of buffered substrate solution and 200 μl of urine of normal concentration. […] Also, β-galactosidase in human urine could be kinetically determined by using resorufin-β-D-galactopyranoside (compound S6). […] The activity of β-glucuronidase in human urine could be kinetically measured with 2H-7-O-(β-D-glucuronopyranosyl)-4-methyl-8-nitrobenzopyran-2-one (compound S9).
In this case, 0.1 ml of urine concentrate was added to 0.6 ml of buffered substrate solution and the activity recorded at pH 5, 30° C. and 366 nm. Under these conditions an absorbance difference of 0,014 A/min was measured. Consequently the determination is many times more sensitive than with the customary p-nitrophenyl substrate (Table 4).

Test [1] can be described thus: Test paper moistened with a blood plasma solution. As to conditions: paper impregnated with ethanol solution containing 0.01% substrate. An excerpt: The crude product was purified on a chromatography column (stationary phase: silica gel; mobile phase: CHCl3 +glacial acetic acid 19:1).

For the compound `Cc1cc(=O)oc2c([N+](=O)[O-])c(O[C@@H]3O[C@H](C(=O)O)[C@@H](O)[C@H](O)[C@H]3O)ccc12` [compound S9, 2H-7-O-(1-β-D-Glucuronopyranosyl)-4-methyl-8-nitrobenzopyran-2-one], the “delta A/min” value on β-glucuronidase is on record as 0,014 A/min.

Turning to `Cc1ccc(S(=O)(=O)NCC(=O)N2CCC[C@H]2C(=O)N[C@@H](CCCNC(=N)N)C(=O)Oc2ccc3c(c2)oc2cc(=O)ccc-2[n+]3[O-])cc1` [Tos-Gly-Pro-Arg-resazurin], the “coloration of test paper” value in test [1] is listed as “immediate blue-violet coloration”.
